From US11325884B2, “Ketone inhibitors of lysine gingipain” (CORTEXYME, INC., priority 2016, dated 2022)

Assays:
[1] = molecular target: Kgp (Porphyromonas gingivalis (Bacteroides gingivalis), UniProt Q51817); assay: Activity probe labeling of Kgp in P. gingivalis-infected Jurkat cells; format: cell-based
Text: The identity of this labeled protein in P. gingivalis-infected cells was confirmed to be Kgp by Western blot.

[2] = Oral pharmacokinetics in CD-1 mice; format: in vivo; details: male CD-1 mice, p.o. 10 mg/kg; for oral availability / plasma concentrations: as compared to reference compound 73
[3] = molecular target: lysine gingipain (Kgp) (Porphyromonas gingivalis (strain ATCC 33277 / DSM 20709 / CIP 103683 / JCM 12257 / NCTC 11834 / 2561), UniProt B2RLK2); assay: Inhibition of lysine gingipain, fluorogenic assay (Z-His-Glu-Lys-MCA); format: biochemical; details: as compared to reference compound 73
Description: The specific assay conditions were as follows. Buffer: pH=7.5, 100 mM Tris-HCl, 75 mM NaCl, 2.5 mM CaCl2, 10 mM cysteine, 1% DMSO after all additions. Protein: 0.1 nM Kgp, isolated from culture of Porphyromonas gingivalis, as described by Pike et al. (J. Biol. Chem. 1994, 269(1), 406), and Potempa and Nguyen (Current Protocols in Protein Science. 2007, 21.20.1-21.20.27). Fluorogenic substrate: 10 μM Z-His-Glu-Lys-MCA. Time=90 minutes. Temperature=37° C.
Further assays to measure the inhibitory activity of compounds of the present invention against Kgp and cathepsins B, H, K, L, and S were conducted as described in Example 66. The capacities of the compounds to inhibit the activity of cathepsins F, V, and Z were also measured.

[4] = in vivo, po; cited from earlier work

| Structure (SMILES) | concentrations in the brain and cerebrospinal fluid (CSF) [2] | oral availability [2] | plasma concentrations [2] | selectivity for Kgp over endogenous cathepsins [3] | other results |
| --- | --- | --- | --- | --- | --- |
| CC1=CC(C)=[N+]2C1=Cc1ccc(CCC(=O)NCc3cn(-c4cccc(C(=O)NC(CCCCN)C(=O)COc5c(F)cccc5F)c4)nn3)n1[B-]2(F)F (stereo not drawn) [Compound 15a] |  |  |  |  | binding to purified Kgp and to Kgp in infected cells ([1]; FIG. 6A): irreversibly binds |
| COC(C)(C)C(=O)N[C@@H](CCCCN)C(=O)COc1c(F)ccc(F)c1F [Compound 47, (S)—N-(7-amino-2-oxo-1-(2,3,6-trifluorophenoxy)heptan-3-yl)-2-methoxy-2-methylpropanamide] | increased | improved | increased | far more selective |  |
| NCCCC[C@H](NC(=O)C1CCCC1)C(=O)COc1ccon1 [Compound 49, (S)—N-(7-amino-1-(isoxazol-3-yloxy)-2-oxoheptan-3-yl)cyclopentanecarboxamide] | reduced |  |  |  |  |
| COC(C)(C)C(=O)N[C@@H](CCCCN)C(=O)COC(C(F)(F)F)C(F)(F)F [Compound 69, (S)—N-(7-amino-1-((1,1,1,3,3,3-hexafluoropropan-2-yl)oxy)-2-oxoheptan-3-yl)-2-methoxy-2-methylpropanamide] | increased | improved | increased | far more selective |  |
| C[N+]1=C(/C=C/C=C/C=C2\N(CCCCCC(=O)NCc3cn(-c4cccc(C(=O)N[C@@H](CCCCN)C(=O)COc5c(F)cccc5F)c4)nn3)c3ccc(S(=O)(=O)O)cc3C2(C)C)C(C)(C)c2cc(S(=O)(=O)O)ccc21 [Compound 70] |  |  |  |  | effect of preincubation on binding of probe 15a to Kgp ([1]; infected Jurkat cells, preincubation 1 hour): blocked the binding |
| CN(NC(=O)CC[C@H](NC(=O)OCc1ccccc1)C(=O)N[C@@H](CCCCN)C(=O)C(=O)NCc1ccccc1)c1ccccc1 [Kyt-36] |  |  |  |  | half-life [4]: increases |
